Data as given in patent publication US11415579B2, “Assay for measuring a rate of reaction between a target and a ligand candidate” (Imperial College Innovations Ltd., priority 2016, dated 2022).

Legend:
[1] = Kinetic thiol consumption assay with model thiol glutathione; type: physicochemical; set-up: Rate constant with glutathione (k(GSH)): unit not given here; conditions: for Rate constant with glutathione (k(GSH)): 500 μM ligand, 5 μM thiol, phosphate buffer pH 8; for Rate constant with Glutathione: Protein: Glutathione, cysteine position NA, in h-1
In short: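 First, 5 μM glutathione in degassed phosphate buffer (pH 8) receives immobilized TCEP beads (2% v/v). Then acrylamide is added and plates incubate 1 h at room temperature. Finally, fluorescence (380/470 nm) is normalized and fitted to first-order decay for rate constants.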

[2] = target: T1, human cyclin-dependent kinase 2 (Cdk2) (Homo sapiens, UniProt P24941); assay: Kinetic thiol consumption assay with wild type Cdk2 (C177); type: binding; set-up: key to Rate enhancement, Cdk2 WT: k(Cdk2) divided by k(model thiol); Rate constant with Cdk2 (k(Cdk2)): unit not given here; conditions: for Rate constant with Cdk2 (k(Cdk2)): 500 μM ligand, 5 μM thiol, phosphate buffer pH 8; for Rate enhancement, Cdk2 WT: no additional mutations; for Rate constant with Cdk2 WT: Protein: Cdk2, cysteine position WT, in h^-1; for k(Cdk2)/k(Cdk2_mut) rate enhancement: model thiol Cdk2[C177A, F80C, K278C]; for k(Cdk2)/k(GSH) rate enhancement: model thiol glutathione
T1 construct: poly-histidine; made in house; host or cells: E. coli
In short: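 His-tagged human Cdk2 from E. coli (sole surface cysteine C177) or a model thiol, each 5 μM in degassed phosphate buffer pH 8 with immobilized TCEP, reacted with acrylamides at room temperature. Fluorescence (ex 380/em 470) normalized to DMSO/thiol control over time; first-order rate constants, Cdk2 rate divided by model-thiol rate.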

Cdk2[C177A, F80C, K278C] = target: T2, Cdk2[C177A, F80C, K278C] (Homo sapiens, UniProt P24941, C177A/F80C/K278C); assay: Kinetic thiol consumption assay with mutant Cdk2 as model thiol; type: binding; set-up: unit not given here; conditions: 500 μM ligand, 5 μM thiol, phosphate buffer pH 8
T2 construct: poly-histidine; made in house; host or cells: E. coli
In short: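 Model thiol: His-tagged human Cdk2 C177A/F80C/K278C (two engineered surface cysteines), E. coli-expressed, 5 μM in degassed phosphate buffer pH 8 with immobilized TCEP beads (2% v/v). Fluorescence (ex/em 380/470 nm) followed over time at room temperature, normalized to DMSO/thiol control. First-order decay fit gives rate constants.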

Cdk2(C177A, F80C) = target: T3, Cdk2(C177A, F80C) (Homo sapiens, UniProt P24941, C177A/F80C); assay: Kinetic thiol consumption assay with Cdk2 mutant F80C, incl. kobs versus concentration (Kd, k2); type: binding; set-up: key to Rate enhancement, Cdk2 F80C: Cdk2 rate constant divided by model-thiol rate constant; conditions: additional mutation C177A; for Rate constant with Cdk2 F80C: Protein: Cdk2, cysteine position F80C, in h^-1
T3 construct: poly-histidine; made in house; host or cells: E. coli
In short: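 His-tagged Cdk2(C177A/F80C) from E. coli or model thiol, 5 μM in degassed phosphate buffer pH 8 with TCEP beads, reacted with acrylamide ligands; fluorescence (ex/em 380/470 nm) normalized to DMSO control and fitted to first-order decay for kobs. Kd and k2 obtained from hyperbolic fit of kobs versus ligand concentration.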

Cdk2(H71C) (C177A) = target: T4, Cdk2(H71C) (C177A) (Homo sapiens, UniProt P24941, C177A/H71C); assay: Kinetic thiol consumption assay with Cdk2 mutant H71C; type: binding; set-up: key to Rate enhancement, Cdk2 H71C: rate constant with Cdk2 ÷ rate constant with model thiol (fold); conditions: additional mutation C177A; for Rate constant with Cdk2 H71C: Protein: Cdk2, cysteine position H71C, in h^-1
T4 construct: poly-histidine; made in house; host or cells: E. coli
In short: (§1)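 His-tagged single-surface-cysteine Cdk2 mutants (C177A background) from E. coli, 5 μM in degassed phosphate buffer pH 8, pre-treated with immobilized TCEP beads. Fluorescence (ex/em 380/470 nm) read after 1 h at room temperature, normalized to DMSO/thiol-only control; first-order decay fits gave rate constants, divided by model-thiol rate for rate enhancement.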

Cdk2(S276C) (C177A) = target: T5, Cdk2(S276C) (C177A) (Homo sapiens, UniProt P24941, C177A/S276C); assay: Kinetic thiol consumption assay with Cdk2 mutant S276C; type: binding; set-up: key to Rate enhancement, Cdk2 S276C: rate constant with Cdk2 ÷ rate constant with model thiol (fold); conditions: additional mutation C177A; for Rate constant with Cdk2 S276C: Protein: Cdk2, cysteine position S276C, in h^-1
T5 construct: poly-histidine; made in house; host or cells: E. coli
In short: as §1

Cdk2(N272C) (C177A) = target: T6, Cdk2(N272C) (C177A) (Homo sapiens, UniProt P24941, C177A/N272C); assay: Kinetic thiol consumption assay with Cdk2 mutant N272C; type: binding; set-up: key to Rate enhancement, Cdk2 N272: rate constant with Cdk2 ÷ rate constant with model thiol (fold); conditions: for Rate enhancement, Cdk2 N272: Cdk2 N272, additional mutation C177A; for Rate constant with Cdk2 N272C: Protein: Cdk2, cysteine position N272C, additional mutation C177A, in h^-1
T6 construct: poly-histidine; made in house; host or cells: E. coli
In short: as §1

Cdk2(T182C) (C177A) = target: T7, Cdk2(T182C) (C177A) (Homo sapiens, UniProt P24941, C177A/T182C); assay: Kinetic thiol consumption assay with Cdk2 mutant T182C; type: binding; set-up: key to Rate enhancement, Cdk2 T182C: rate constant with Cdk2 ÷ rate constant with model thiol (fold); conditions: additional mutation C177A; for Rate constant with Cdk2 T182C: Protein: Cdk2, cysteine position T182C, in h^-1
T7 construct: poly-histidine; made in house; host or cells: E. coli
In short: as §1

Cdk2(R122C) (C177A) = target: T8, Cdk2(R122C) (C177A) (Homo sapiens, UniProt P24941, C177A/R122C); assay: Kinetic thiol consumption assay with Cdk2 mutant R122C; type: binding; set-up: key to Rate enhancement, Cdk2 R122C: rate constant with Cdk2 ÷ rate constant with model thiol (fold); conditions: additional mutation C177A; for Rate constant with Cdk2 R122C: Protein: Cdk2, cysteine position R122C, in h-1
T8 construct: poly-histidine; made in house; host or cells: E. coli
In short: as §1

Cdk2(S181C) (C177A) = target: T9, Cdk2(S181C) (C177A) (Homo sapiens, UniProt P24941, C177A/S181C); assay: Kinetic thiol consumption assay with Cdk2 mutant S181C; type: binding; set-up: key to Rate enhancement, Cdk2 S181C: rate constant with Cdk2 ÷ rate constant with model thiol (fold); conditions: additional mutation C177A; for Rate constant with Cdk2 S181C: Protein: Cdk2, cysteine position S181C, in h^-1
T9 construct: poly-histidine; made in house; host or cells: E. coli
In short: as §1

Structure (SMILES)	Rate constant with glutathione (k(GSH)) [1]	Rate constant with Glutathione [1]	Rate constant with Cdk2 (k(Cdk2)) [2]	Rate enhancement, Cdk2 WT [2]	Rate constant with Cdk2 WT [2]	k(Cdk2)/k(Cdk2_mut) rate enhancement [2]	k(Cdk2)/k(GSH) rate enhancement [2]	Rate constant with Cdk2[C177A, F80C, K278C] (k(Cdk2_mut)) (Cdk2[C177A, F80C, K278C])	Rate constant with Cdk2 F80C (Cdk2(C177A, F80C))	Rate enhancement, Cdk2 H71C (Cdk2(H71C) (C177A))	Rate enhancement, Cdk2 S276C (Cdk2(S276C) (C177A))	Rate constant with Cdk2 S276C (Cdk2(S276C) (C177A))	Rate enhancement, Cdk2 N272 (Cdk2(N272C) (C177A))	Rate constant with Cdk2 N272C (Cdk2(N272C) (C177A))	Rate enhancement, Cdk2 T182C (Cdk2(T182C) (C177A))	Rate constant with Cdk2 T182C (Cdk2(T182C) (C177A))	Rate enhancement, Cdk2 R122C (Cdk2(R122C) (C177A))	Rate constant with Cdk2 R122C (Cdk2(R122C) (C177A))	Rate enhancement, Cdk2 S181C (Cdk2(S181C) (C177A))	Rate constant with Cdk2 S181C (Cdk2(S181C) (C177A))	also measured
C=CC(=O)Nc1cccc(-c2nnnn2C2CC2)c1 [CA-057]	0.02585	0.02651	0.0716	2.701	0.0716	0.7607	2.77	0.09413	0.05671	1.636	1.606	0.04258	2.885	0.07649	18.51	0.4908	1.176	0.03118	1.069	0.02834	Rate enhancement, Cdk2 F80C (Cdk2(C177A, F80C)): 2.139; Rate constant with Cdk2 H71C (Cdk2(H71C) (C177A)): 0.04338
C=CC(=O)NCCCN(C(=O)C1CCC1)C1CC1 [CA-060]	0.00283	0.005138	0.00226	0.7143	0.00367	1.013	0.7988	0.00223	~0.0004944	0	1.112	0.005711	3.677	0.01889	1.619	0.00832	0.4675	0.002402	0.7812	0.004014	–
C=CC(=O)N1CC(Cc2ccccc2)C1 [CA-072]	0.01236	0.02221	0.0241	1.085	0.0241	5.016	1.95	0.00481	0.0057	16.46	4.036	0.08965	9.388	0.2085	6.718	0.1492	0.3503	0.00778	2.167	0.04813	Rate enhancement, Cdk2 F80C (Cdk2(C177A, F80C)): 0.2566; Rate constant with Cdk2 H71C (Cdk2(H71C) (C177A)): 0.3655
C=CC(=O)N1CCCN(Cc2noc(C3CC3)n2)CC1 [CA-079]	0.00593	0.009223	0.00553	1.018	0.00939	2.634	0.9328	0.0021	0.001299	0.2998	0.6649	0.006132	0.4916	0.004534	0.8366	0.007716	0.4828	0.004453	4.96	0.04575	Rate enhancement, Cdk2 F80C (Cdk2(C177A, F80C)): 0.1408; Rate constant with Cdk2 H71C (Cdk2(H71C) (C177A)): 0.002765
C=CC(=O)N1CCCC2(CCCc3ccccc32)C1 (stereo not drawn) [CA-084]	0.01002	0.01681	0.00872	0.5186	0.008718	1.989	0.8701	0.00438	0.03044	0.8209	1.079	0.01813	0.06817	0.001146	3.848	0.06469	0.2694	0.004528	0.4258	0.007158	Rate enhancement, Cdk2 F80C (Cdk2(C177A, F80C)): 1.811; Rate constant with Cdk2 H71C (Cdk2(H71C) (C177A)): 0.0138
C=CC(=O)N1CCC(NC(=O)C2CCC2)C1 (stereo not drawn) [CA-088]	0.01352	0.01947	0.00595	0.3054	0.005947	3.366	0.4399	0.00177	0.002347	0	0.4395	0.008557	0.5609	0.01092	0.9096	0.01771	0.4684	0.009119	0.1904	0.003708	Rate enhancement, Cdk2 F80C (Cdk2(C177A, F80C)): 0.1205
